#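 Test compounds were applied to cells in 96-well plates for 48 hours at 5 doses. At the GI50, growth is halved. TGI: total growth inhibition.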
# Tests used:
# Assay in all cases: DTP human tumour cell line panel, 48 h
# NCI-H522 lung = test system: NCI-H522 lung
# HT29 colon = test system: HT29 colon
# HS 578T breast = test system: HS 578T breast
# SF-295 CNS = test system: SF-295 CNS
# TK-10 renal = test system: TK-10 renal
# COLO 205 colon = test system: COLO 205 colon
# NCI-H460 lung = test system: NCI-H460 lung
# SNB-75 CNS = test system: SNB-75 CNS
# NCI-H226 lung = test system: NCI-H226 lung
# SR leukemia = test system: SR leukemia
# SF-268 CNS = test system: SF-268 CNS
# OVCAR-4 ovarian = test system: OVCAR-4 ovarian
# RXF 393 renal = test system: RXF 393 renal
# DU-145 prostate = test system: DU-145 prostate
# BT-549 breast = test system: BT-549 breast
# MCF7 breast = test system: MCF7 breast
# 786-0 renal = test system: 786-0 renal
# LOX IMVI melanoma = test system: LOX IMVI melanoma
# ACHN renal = test system: ACHN renal
# NCI/ADR-RES ovarian = test system: NCI/ADR-RES ovarian
# SF-539 CNS = test system: SF-539 CNS
# U251 CNS = test system: U251 CNS
# OVCAR-5 ovarian = test system: OVCAR-5 ovarian
# A498 renal = test system: A498 renal
# SK-MEL-28 melanoma = test system: SK-MEL-28 melanoma
# K-562 leukemia = test system: K-562 leukemia
# HOP-62 NSCLC = test system: HOP-62 NSCLC
# SK-MEL-2 melanoma = test system: SK-MEL-2 melanoma
# T-47D breast = test system: T-47D breast
# A549 NSCLC = test system: A549 NSCLC
# SW-620 colon = test system: SW-620 colon
# UO-31 renal = test system: UO-31 renal
# NCI-H23 lung = test system: NCI-H23 lung
# SK-OV-3 ovarian = test system: SK-OV-3 ovarian
# MDA-MB-231 breast = test system: MDA-MB-231 breast
# KM12 colon = test system: KM12 colon
# SNB-19 CNS = test system: SNB-19 CNS
# PC-3 prostate = test system: PC-3 prostate
# UACC-62 melanoma = test system: UACC-62 melanoma
# SN12C renal = test system: SN12C renal
# EKVX NSCLC = test system: EKVX NSCLC
# MALME-3M melanoma = test system: MALME-3M melanoma
# IGROV1 ovarian = test system: IGROV1 ovarian
# CAKI-1 renal = test system: CAKI-1 renal
# HCT-116 colon = test system: HCT-116 colon
# RPMI-8226 leukemia = test system: RPMI-8226 leukemia
# HCC-2998 colon = test system: HCC-2998 colon
# CCRF-CEM leukemia = test system: CCRF-CEM leukemia
# SK-MEL-5 melanoma = test system: SK-MEL-5 melanoma
# HCT-15 colon = test system: HCT-15 colon
# MDA-MB-435 = test system: MDA-MB-435
# UACC-257 melanoma = test system: UACC-257 melanoma
# MOLT-4 leukemia = test system: MOLT-4 leukemia
# M14 melanoma = test system: M14 melanoma
# OVCAR-8 ovarian = test system: OVCAR-8 ovarian
smiles,measurement,setting,value
O=c1c2cc(-c3ccc(F)cc3F)ccc2n(O)c(=O)n1-c1cccc(C(F)(F)F)c1,GI50,NCI-H522 lung,369 nM
same,TGI,NCI-H522 lung,2550 nM
same,GI50,HT29 colon,4300 nM
same,TGI,HT29 colon,26800 nM
same,GI50,HS 578T breast,837 nM
same,TGI,HS 578T breast,4420 nM
same,GI50,SF-295 CNS,1650 nM
same,TGI,SF-295 CNS,3450 nM
same,GI50,TK-10 renal,4190 nM
same,TGI,TK-10 renal,9170 nM
same,GI50,COLO 205 colon,1940 nM
same,TGI,COLO 205 colon,4050 nM
same,GI50,NCI-H460 lung,668 nM
same,TGI,NCI-H460 lung,5230 nM
same,GI50,SNB-75 CNS,1510 nM
same,TGI,SNB-75 CNS,6450 nM
same,GI50,NCI-H226 lung,1010 nM
same,TGI,NCI-H226 lung,3640 nM
same,GI50,SR leukemia,259 nM
same,TGI,SR leukemia,1880 nM
same,GI50,SF-268 CNS,1750 nM
same,TGI,SF-268 CNS,15500 nM
same,GI50,OVCAR-4 ovarian,2190 nM
same,TGI,OVCAR-4 ovarian,> 100000 nM
same,GI50,RXF 393 renal,1050 nM
same,TGI,RXF 393 renal,3140 nM
same,GI50,DU-145 prostate,2480 nM
same,TGI,DU-145 prostate,49100 nM
same,GI50,BT-549 breast,437 nM
same,TGI,BT-549 breast,1580 nM
same,GI50,MCF7 breast,1610 nM
same,TGI,MCF7 breast,7120 nM
same,GI50,786-0 renal,2150 nM
same,TGI,786-0 renal,5660 nM
same,GI50,LOX IMVI melanoma,1220 nM
same,TGI,LOX IMVI melanoma,2940 nM
same,GI50,ACHN renal,2080 nM
same,TGI,ACHN renal,10400 nM
same,GI50,NCI/ADR-RES ovarian,1170 nM
same,TGI,NCI/ADR-RES ovarian,10500 nM
same,GI50,SF-539 CNS,1470 nM
same,TGI,SF-539 CNS,7940 nM
same,GI50,U251 CNS,1860 nM
same,TGI,U251 CNS,15700 nM
same,GI50,OVCAR-5 ovarian,3380 nM
same,TGI,OVCAR-5 ovarian,92900 nM
same,GI50,A498 renal,347 nM
same,TGI,A498 renal,1260 nM
same,GI50,SK-MEL-28 melanoma,1260 nM
same,TGI,SK-MEL-28 melanoma,10000 nM
same,GI50,K-562 leukemia,424 nM
same,TGI,K-562 leukemia,35000 nM
same,GI50,HOP-62 NSCLC,1800 nM
same,TGI,HOP-62 NSCLC,4340 nM
same,GI50,SK-MEL-2 melanoma,534 nM
same,TGI,SK-MEL-2 melanoma,2290 nM
same,GI50,T-47D breast,1490 nM
same,TGI,T-47D breast,5760 nM
same,GI50,A549 NSCLC,2950 nM
same,TGI,A549 NSCLC,20100 nM
same,GI50,SW-620 colon,2050 nM
same,TGI,SW-620 colon,10500 nM
same,GI50,UO-31 renal,2230 nM
same,TGI,UO-31 renal,9300 nM
same,GI50,NCI-H23 lung,722 nM
same,TGI,NCI-H23 lung,5300 nM
same,GI50,SK-OV-3 ovarian,1130 nM
same,TGI,SK-OV-3 ovarian,3880 nM
same,GI50,MDA-MB-231 breast,1590 nM
same,TGI,MDA-MB-231 breast,6360 nM
same,GI50,KM12 colon,2160 nM
same,TGI,KM12 colon,7070 nM
same,GI50,SNB-19 CNS,682 nM
same,TGI,SNB-19 CNS,> 100000 nM
same,GI50,PC-3 prostate,1800 nM
same,TGI,PC-3 prostate,6950 nM
same,GI50,UACC-62 melanoma,323 nM
same,TGI,UACC-62 melanoma,1310 nM
same,GI50,SN12C renal,683 nM
same,TGI,SN12C renal,5410 nM
same,GI50,EKVX NSCLC,2350 nM
same,TGI,EKVX NSCLC,8470 nM
same,GI50,MALME-3M melanoma,1510 nM
same,TGI,MALME-3M melanoma,5390 nM
same,GI50,IGROV1 ovarian,2030 nM
same,TGI,IGROV1 ovarian,25400 nM
same,GI50,CAKI-1 renal,1610 nM
same,TGI,CAKI-1 renal,6020 nM
same,GI50,HCT-116 colon,420 nM
same,TGI,HCT-116 colon,1610 nM
same,GI50,RPMI-8226 leukemia,1020 nM
same,TGI,RPMI-8226 leukemia,5850 nM
same,GI50,HCC-2998 colon,2510 nM
same,TGI,HCC-2998 colon,9900 nM
same,GI50,CCRF-CEM leukemia,3120 nM
same,TGI,CCRF-CEM leukemia,> 100000 nM
same,GI50,SK-MEL-5 melanoma,263 nM
same,TGI,SK-MEL-5 melanoma,708 nM
same,GI50,HCT-15 colon,435 nM
same,TGI,HCT-15 colon,2280 nM
same,GI50,MDA-MB-435,1560 nM
same,TGI,MDA-MB-435,7670 nM
same,GI50,UACC-257 melanoma,1010 nM
same,TGI,UACC-257 melanoma,4480 nM
same,GI50,MOLT-4 leukemia,419 nM
same,TGI,MOLT-4 leukemia,2130 nM
same,GI50,M14 melanoma,773 nM
same,TGI,M14 melanoma,3470 nM
same,GI50,OVCAR-8 ovarian,1080 nM
same,TGI,OVCAR-8 ovarian,8890 nM
